Results from ChEMBL document CHEMBL1144368, “Synthesis of 15R-PGD2: a potential DP2 receptor agonist” (Bioorg Med Chem Lett, 2005).

Tests used:
Type in all cases: functional
[1] = target: T1, Prostaglandin D2 receptor 2 (Homo sapiens) (UniProt Q9Y5Y4); assay: Percentage for DP2 mediated stimulation of actin polymerization in eosinophils was determined at 1 uM; (above control)
T1 sequence (whole entry): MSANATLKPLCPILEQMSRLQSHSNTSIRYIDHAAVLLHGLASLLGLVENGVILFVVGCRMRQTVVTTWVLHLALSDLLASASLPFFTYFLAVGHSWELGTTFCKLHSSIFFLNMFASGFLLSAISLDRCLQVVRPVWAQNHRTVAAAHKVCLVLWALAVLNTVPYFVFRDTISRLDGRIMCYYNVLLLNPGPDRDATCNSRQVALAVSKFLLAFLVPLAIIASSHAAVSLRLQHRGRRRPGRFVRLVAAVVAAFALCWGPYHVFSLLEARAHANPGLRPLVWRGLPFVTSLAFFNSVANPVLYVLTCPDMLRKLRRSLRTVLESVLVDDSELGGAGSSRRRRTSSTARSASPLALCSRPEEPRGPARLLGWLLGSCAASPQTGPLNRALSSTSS

[2] = target: T2, Prostaglandin D2 receptor (Homo sapiens) (UniProt Q13258); assay: Effective concentration for DP1 mediated cAMP formation in platelets was determined at 1 uM
T2 sequence (whole entry): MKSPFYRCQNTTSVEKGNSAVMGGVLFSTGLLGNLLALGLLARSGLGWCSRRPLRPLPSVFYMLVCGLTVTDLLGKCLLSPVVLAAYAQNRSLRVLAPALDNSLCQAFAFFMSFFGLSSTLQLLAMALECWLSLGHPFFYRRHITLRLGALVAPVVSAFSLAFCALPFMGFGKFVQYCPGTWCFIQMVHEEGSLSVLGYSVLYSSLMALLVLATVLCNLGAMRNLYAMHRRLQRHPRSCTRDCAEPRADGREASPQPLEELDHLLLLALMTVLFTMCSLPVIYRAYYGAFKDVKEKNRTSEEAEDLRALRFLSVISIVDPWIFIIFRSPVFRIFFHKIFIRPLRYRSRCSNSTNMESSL

[3] = target: T3, Prostaglandin D2 receptor 2 (Homo sapiens, UniProt Q9Y5Y4); assay: Effective concentration DP2 mediated expression of the adhesion molecule CD11b in eosinophils
T3 sequence (Q9Y5Y4 whole entry): T1 sequence (whole entry)

[4] = target: T3, Prostaglandin D2 receptor 2; assay: Effective concentration for DP2 mediated stimulation of actin polymerization in eosinophils
[5] = target: T2, Prostaglandin D2 receptor (Homo sapiens); assay: Effective concentration for DP1 mediated cAMP formation in platelets

Row | Activity [1] [%] | Activity [2] [pmol] | EC50 [3] [nM] | EC50 [4] [nM] | EC10 [5] [nM] | SMILES
1 | 83.8 | 0.83 |  |  |  | CCCCC[C@@H](O)/C=C/[C@H]1C(=O)C[C@H](O)[C@@H]1C/C=C/CCCC(=O)O
2 |  |  | 99 | 333 | 2100 | CCCCC[C@](C)(O)/C=C/[C@H]1C(=O)C[C@H](O)[C@@H]1C/C=C/CCCC(=O)O
3 |  |  | 1.4 | 3.8 | > 10000 | CCCCC[C@@](C)(O)/C=C/[C@H]1C(=O)C[C@H](O)[C@@H]1C/C=C/CCCC(=O)O
4 | 86.2 | 15.5 | 7 | 13 | 11 | CCCCC[C@H](O)/C=C/[C@H]1C(=O)C[C@H](O)[C@@H]1CC=CCCCC(=O)O [[3H]PGD2]
